The values that follow come from ChEMBL document CHEMBL3734723, “Synthesis and anticancer activity of 6-heteroarylcoumarins” (2015).

Holding throughout (type): functional
Assay [1] can be described thus: Cytotoxicity against human OVCAR8 cells assessed as cell growth at 10 uM incubated for 48 hrs by sulforhodamine B assay. Conditions: OVCAR-8, 48 h, read-out: Activity. (In general: Sulforhodamine B stains cellular protein and so reports cell mass.)
A short description of assay [2]: Growth inhibition of human SF295 cells incubated for 48 hrs by sulforhodamine B assay. Conditions: SF-295, 48 h.
Assay [3] in a line: Cytotoxicity against human COLO205 cells assessed as cell growth at 10 uM incubated for 48 hrs by sulforhodamine B assay. The settings on record: COLO 205, 48 h, read-out: Activity.
The subject of another assay is EKVX. Kind of assay: Growth inhibition of human EKVX cells incubated for 48 hrs by sulforhodamine B assay.
A short description of assay [4]: Growth inhibition of human Caki1 cells incubated for 48 hrs by sulforhodamine B assay. The settings on record: CAKI-1, 48 h.
Another assay has as its system MDA-MB-435. In words: Growth inhibition of human MDA-MB-435 cells incubated for 48 hrs by sulforhodamine B assay. The settings on record: MDA-MB-435, 48 h.
Assay [5] can be described thus: Cytotoxicity against human DU145 cells assessed as cell growth at 10 uM incubated for 48 hrs by sulforhodamine B assay. Conditions: DU-145, 48 h, read-out: Activity.
In the next assay the test system is SR. In words: Growth inhibition of human SR cells incubated for 48 hrs by sulforhodamine B assay.
Assay [6] can be described thus: Cytotoxicity against human BT549 cells assessed as cell growth at 10 uM incubated for 48 hrs by sulforhodamine B assay. Conditions: BT-549, 48 h, read-out: Activity.
In a further assay the test system is K562. Kind of assay: Growth inhibition of human K562 cells incubated for 48 hrs by sulforhodamine B assay. Conditions: K562, 48 h.
Assay [7] in a line: Cytotoxicity against human OVCAR3 cells assessed as cell growth at 10 uM incubated for 48 hrs by sulforhodamine B assay. Conditions: OVCAR-3, 48 h, read-out: Activity.
A further assay has as its system SK-MEL-2. In words: Cytotoxicity against human SK-MEL-2 cells assessed as cell growth at 10 uM incubated for 48 hrs by sulforhodamine B assay. Conditions: SK-MEL-2, 48 h, read-out: Activity.
The nature of assay [8]: Cytotoxicity against human HCC2998 cells assessed as cell growth at 10 uM incubated for 48 hrs by sulforhodamine B assay. Conditions: HCC 2998, 48 h, read-out: Activity.
Assay [9] in a line: Cytotoxicity against human SKOV3 cells assessed as cell growth at 10 uM incubated for 48 hrs by sulforhodamine B assay. The settings on record: SK-OV-3, 48 h, read-out: Activity.
The subject of a further assay is NCI-H322M. Kind of assay: Cytotoxicity against human NCI-H322M cells assessed as cell growth at 10 uM incubated for 48 hrs by sulforhodamine B assay. Conditions: read-out: Activity.
The nature of assay [10]: Growth inhibition of human OVCAR4 cells incubated for 48 hrs by sulforhodamine B assay. The settings on record: OVCAR-4, 48 h.
Assay [11] is described as follows: Cytotoxicity against human UACC257 cells assessed as cell growth at 10 uM incubated for 48 hrs by sulforhodamine B assay. The settings on record: UACC-257, 48 h, read-out: Activity.
A short description of assay [12]: Growth inhibition of human HL-60(TB) cells incubated for 48 hrs by sulforhodamine B assay. The settings on record: HL-60, 48 h.
[13] abbreviates: read-out: LC50 (the source's name).

A word on the GI50: it is the concentration giving 50% growth inhibition. High values mean less potent growth inhibition, low ones more potent growth inhibition. The term TGI denotes the concentration giving total growth inhibition. Lower therefore signals more potent growth arrest. Regarding `Cc1cc(=O)oc2c(C)c(O)c(-c3ccnc(N)n3)cc12`, the growth at 10 µM in [1] turned out to be 48%; in assay [3] it was 46.9%; in assay [5] it was 66.6%. Moreover, the GI50 was 8.74 µM in assay [2], 48.4 µM in the assay with EKVX, 3.95 µM in assay [4] and above 100 µM in the assay with MDA-MB-435. Further, the TGI (in assay [2]; in the assay with EKVX; in assay [4]; in the assay on MDA-MB-435) was above 100 µM each time. Further, the CC50 (in assay [2] (setting [13]); in the assay on EKVX (setting [13]); in assay [4] (setting [13]); in the assay on MDA-MB-435 (setting [13])) was above 100 µM throughout.

`Cc1cc(=O)oc2c(C)c(O)c(-c3cc4ccc(F)cc4[nH]3)cc12`: the concentration for 50% growth inhibition (GI50) in the assay on SR came out at 3.24 µM; in the assay on K562, 2.68 µM; in assay [10], 3.99 µM; in assay [12], 2.96 µM. Further, the concentration for total growth inhibition (TGI) in the assay with SR worked out at 16.9 µM; in the assay on K562 it was 23 µM; in assay [10], 32.9 µM; in assay [12], 9.69 µM. Further, the CC50 (in the assay with SR (setting [13]); in the assay on K562 (setting [13]); in assay [10] (setting [13]); in [12] (setting [13])) was above 100 µM each time. The growth at 10 µM stood at 47.6% in assay [6]; 16.5% in assay [7]; 19.5% with SK-MEL-2; 24.9% in [8]; 47.1% in [9]; 53.4% with NCI-H322M. For the same compound, the growth at 10 µM in assay [11] was 30.4%.
